EP4653440A1, “HETEROCYCLIC COMPOUND, AND PHARMACEUTICAL COMPOSITION AND USE THEREOF” (Prime Gene Therapeutics Co., Ltd., priority 2023, dated 2024)

How the values were obtained:
[1] = system: phosphorylation of myosin light chain T18/S19; experiment: In Cell Western for phosphorylation of myosin light chain in A7r5 cells; type: cell-based, rat
Excerpt: The rat smooth muscle cell line A7r5 was used, and the A7r5 cell culture conditions were DMEM containing 10% FBS. Phspho-MLC-T18/S19 specific antibody and a second detection antibody were used to detect the phosphorylation level of myosin light chain by In Cell Western. Cells treated with positive compounds were used as positive controls, while the group without compounds but with compound solvents was used as negative controls. DRAQ5 stained cell nuclei were used as internal references. GraphPad Prism 7.0 software was used, and fitting was carried out by using a non-linear regression curve with varying slopes to determine the absolute IC50 value.
On the first day, A7r5 cells were resuspended in serum-free medium and seeded into 384 wells of PDL coated transparent black plates at a density of 5000 cells per well. Serum starvation culture was performed for 4 hours, and the cells were incubated with the compound in serum-free medium for 1 hour. 50 µL of 8% PFA (polyformaldehyde) was added to each well and fixed at room temperature for 1 hour. The liquid in the wells was discard and 90 µL of ice methanol was added to each well to permeabilize the cells at 4 °C for 1 hour. Then, PBST (0.1% Tween20-PBS) was added using an automatic separator to wash three times. After patting the plate for drying, 50 µL blocking solution was added to each well for sealing at room temperature for 1 hour. The phspho-MLC-T18/S19 specific antibody was diluted with the blocking solution at a ratio of 1:200. After adding 20 µL to each well, incubation was carried out overnight at 4 °C with a sealed film.
On the second day, the liquid in the wells was discarded and PBST was added using an automatic separator to wash the plate 5 times. After patting the plate for drying, the second detection antibody was diluted with blocking solution at a ratio of 1:800 and DRAQ5 at a ratio of 1:1000. After adding 20 µL to each well, incubation was carried out at room temperature for 1 hour. Then, the liquid in the wells was discarded and PBST was added using an automatic separator to wash the plate 3 times, followed by adding ddH2O to wash the plate 3 times. After patting the plate for drying, it was scaned using a LICOR Odyssey near-infrared imaging scanner.

ROCK2 = ROCK2 (Homo sapiens, UniProt O75116); experiment: ROCK2 kinase enzymatic activity (HTRF, STK2 substrate); type: biochemical; settings: ROCK2 kinase reaction 30 minutes at room temperature
ROCK2, sequence (O75116 whole entry): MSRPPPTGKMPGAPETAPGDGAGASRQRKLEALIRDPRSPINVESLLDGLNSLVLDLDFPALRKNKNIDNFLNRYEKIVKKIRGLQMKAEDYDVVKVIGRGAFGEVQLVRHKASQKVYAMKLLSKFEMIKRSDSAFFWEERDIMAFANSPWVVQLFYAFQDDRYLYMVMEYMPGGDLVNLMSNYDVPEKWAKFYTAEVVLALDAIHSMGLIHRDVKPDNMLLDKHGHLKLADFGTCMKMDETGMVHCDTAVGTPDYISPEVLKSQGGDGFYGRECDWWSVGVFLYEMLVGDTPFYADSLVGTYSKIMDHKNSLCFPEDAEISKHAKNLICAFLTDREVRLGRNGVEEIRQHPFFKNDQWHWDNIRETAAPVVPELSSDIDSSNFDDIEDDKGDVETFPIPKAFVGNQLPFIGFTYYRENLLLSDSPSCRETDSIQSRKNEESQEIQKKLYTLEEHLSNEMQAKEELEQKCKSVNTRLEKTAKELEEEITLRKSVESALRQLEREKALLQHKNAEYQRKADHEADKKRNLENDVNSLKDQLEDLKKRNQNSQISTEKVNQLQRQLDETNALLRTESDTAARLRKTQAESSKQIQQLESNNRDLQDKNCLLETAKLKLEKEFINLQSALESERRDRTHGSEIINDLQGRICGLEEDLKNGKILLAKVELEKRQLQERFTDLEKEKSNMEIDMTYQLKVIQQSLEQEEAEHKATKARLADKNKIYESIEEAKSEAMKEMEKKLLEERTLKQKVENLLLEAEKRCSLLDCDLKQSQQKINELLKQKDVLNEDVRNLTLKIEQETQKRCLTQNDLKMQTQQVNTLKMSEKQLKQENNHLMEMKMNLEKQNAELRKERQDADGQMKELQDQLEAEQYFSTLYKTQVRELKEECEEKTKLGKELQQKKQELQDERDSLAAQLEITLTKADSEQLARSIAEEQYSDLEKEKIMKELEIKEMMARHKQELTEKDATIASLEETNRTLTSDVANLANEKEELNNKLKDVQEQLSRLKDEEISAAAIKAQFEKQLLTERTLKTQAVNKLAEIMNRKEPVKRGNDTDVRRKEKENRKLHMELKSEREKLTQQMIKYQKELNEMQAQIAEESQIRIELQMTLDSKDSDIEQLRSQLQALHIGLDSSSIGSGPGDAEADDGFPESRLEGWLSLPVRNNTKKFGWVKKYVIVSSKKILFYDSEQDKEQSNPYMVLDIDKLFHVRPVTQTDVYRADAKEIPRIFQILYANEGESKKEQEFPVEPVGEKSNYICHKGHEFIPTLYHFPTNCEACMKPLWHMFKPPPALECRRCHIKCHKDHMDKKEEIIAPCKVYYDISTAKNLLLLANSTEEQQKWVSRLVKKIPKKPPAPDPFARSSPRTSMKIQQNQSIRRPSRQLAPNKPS
Excerpt: (§1) The kinase activity data was expressed by comparing the kinase activity of the test compound and that of the blank group (containing only DMSO), and the IC50 value was obtained by curve fitting using Prism software (GraphPad7.0).

ROCK1 = ROCK1 (Homo sapiens, UniProt Q13464); experiment: ROCK1 kinase enzymatic activity (HTRF, STK2 substrate); type: biochemical; settings: ROCK1 kinase reaction 20 minutes at room temperature
ROCK1, sequence (Q13464 whole entry): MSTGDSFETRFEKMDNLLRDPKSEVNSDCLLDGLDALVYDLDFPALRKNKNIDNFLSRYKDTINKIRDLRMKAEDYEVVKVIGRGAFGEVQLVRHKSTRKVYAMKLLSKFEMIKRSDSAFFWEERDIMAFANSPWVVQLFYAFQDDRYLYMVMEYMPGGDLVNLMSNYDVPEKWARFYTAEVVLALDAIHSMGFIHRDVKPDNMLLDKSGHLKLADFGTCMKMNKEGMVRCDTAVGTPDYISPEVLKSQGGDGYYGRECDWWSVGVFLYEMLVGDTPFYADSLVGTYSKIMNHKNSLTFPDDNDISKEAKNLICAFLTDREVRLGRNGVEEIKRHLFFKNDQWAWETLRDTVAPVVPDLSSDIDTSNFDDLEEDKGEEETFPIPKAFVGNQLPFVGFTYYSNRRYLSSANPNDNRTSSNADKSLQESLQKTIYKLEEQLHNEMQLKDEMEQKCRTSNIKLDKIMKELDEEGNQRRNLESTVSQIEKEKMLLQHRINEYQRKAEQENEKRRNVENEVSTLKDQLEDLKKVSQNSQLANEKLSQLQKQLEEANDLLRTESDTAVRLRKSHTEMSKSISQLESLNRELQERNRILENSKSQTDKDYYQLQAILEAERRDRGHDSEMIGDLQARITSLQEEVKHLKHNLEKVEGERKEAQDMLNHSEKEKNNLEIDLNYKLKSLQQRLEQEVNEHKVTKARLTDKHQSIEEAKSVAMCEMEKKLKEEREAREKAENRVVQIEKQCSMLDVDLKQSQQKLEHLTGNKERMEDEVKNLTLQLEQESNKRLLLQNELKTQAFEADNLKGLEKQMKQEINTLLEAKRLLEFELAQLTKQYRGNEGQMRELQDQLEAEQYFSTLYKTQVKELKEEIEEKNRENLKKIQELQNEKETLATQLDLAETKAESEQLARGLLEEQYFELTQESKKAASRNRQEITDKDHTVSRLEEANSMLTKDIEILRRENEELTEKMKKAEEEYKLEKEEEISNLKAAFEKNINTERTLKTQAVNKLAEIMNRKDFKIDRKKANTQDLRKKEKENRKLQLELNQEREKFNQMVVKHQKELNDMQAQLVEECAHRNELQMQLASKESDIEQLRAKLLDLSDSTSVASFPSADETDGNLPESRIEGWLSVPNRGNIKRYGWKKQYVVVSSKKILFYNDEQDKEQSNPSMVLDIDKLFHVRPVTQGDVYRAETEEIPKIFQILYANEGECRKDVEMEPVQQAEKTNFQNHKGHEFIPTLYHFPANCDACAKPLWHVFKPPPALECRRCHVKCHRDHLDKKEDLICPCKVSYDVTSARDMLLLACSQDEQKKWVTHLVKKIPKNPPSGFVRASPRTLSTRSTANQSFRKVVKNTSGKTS
Excerpt: as §1

IC50 ([1]; Rattus norvegicus, A7R5, 1 h) [nM]	IC50 (ROCK2) [nM]	IC50 (ROCK1) [nM]	Structure (SMILES)	IC50 ([1]; rat smooth muscle cell line A7r5, 1 hour compound incubation in serum-free medium, absolute IC50) [nM]
3940			CC(C)NC(=O)COc1cccc(-c2nc(Nc3ccc4[nH]ncc4c3)c3ccccc3n2)c1 [Belumosudil, reference compound]	
92	< 1	< 2	N#CCC1(n2cc(-c3ncnc4[nH]ccc34)c(N)n2)CCS(=O)(=O)CC1 [Example 1, 2-(4-(3-amino-4-(7H-pyrrolo[2,3-d]pyrimidin-4-yl)-1H-pyrazol-1-yl)-1,1-dioxidotetrahydro-2H-thiopyran-4-yl)acetonitrile]	
85	< 1	< 2	N#CCC1(n2cc(-c3ncnc4[nH]ccc34)c(N)n2)CS(=O)(=O)C1 [Example 2, 2-(3-(3-amino-4-(7H-pyrrolo[2,3-d]pyrimidin-4-yl)-1H-pyrazol-1-yl)-1,1-dioxothietan-3-yl)acetonitrile]	
78	< 1	< 2	N#CCC1(n2cc(-c3ncnc4[nH]ccc34)c(N)n2)CCS(=O)(=O)C1 (stereo not shown) [Example 3, 2-(3-(3-amino-4-(7H-pyrrolo[2,3-d]pyrimidin-4-yl)-1H-pyrazol-1-yl)-1,1-dioxotetrahydrothiophen-3-yl)acetonitrile]	
160	< 10	< 10	N#CCC1(n2cc(-c3ncnc4[nH]ccc34)c(N)n2)CCCC1 [Example 4, 2-(1-(3-amino-4-(7H-pyrrolo[2,3-d]pyrimidin-4-yl)-1H-pyrazol-1-yl)cyclopentyl)acetonitrile]	
111	< 5	< 5	N#CCC1(n2cc(-c3ncnc4[nH]ccc34)c(N)n2)CCCCC1 [Example 5, 2-(1-(3-amino-4-(7H-pyrrolo[2,3-d]pyrimidin-4-yl)-1H-pyrazol-1-yl)cyclohexyl)acetonitrile]	
102	< 5	< 5	N#CCC1(n2cc(-c3ncnc4[nH]ccc34)c(N)n2)CC(F)(F)C1 [Example 6, 2-(1-(3-amino-4-(7H-pyrrolo[2,3-d]pyrimidin-4-yl)-1H-pyrazol-1-yl)-3,3-difluorocyclobutyl)acetonitrile]	
1860	< 50	< 50	N#CC1CCCC1n1cc(-c2ncnc3[nH]ccc23)c(N)n1 (stereo not shown) [Example 7, 2-(3-amino-4-(7H-pyrrolo[2,3-d]pyrimidin-4-yl)-1H-pyrazol-1-yl)cyclopentane-1-nitrile]	
1940	< 50	< 50	N#CC1CCCCC1n1cc(-c2ncnc3[nH]ccc23)c(N)n1 (stereo not shown) [Example 8, 2-(3-amino-4-(7H-pyrrolo[2,3-d]pyrimidin-4-yl)-1H-pyrazol-1-yl)cyclohexane-1-nitrile]	
68	< 10	< 10	N#CCC1(n2cc(-c3ncnc4[nH]ccc34)c(N)n2)CC(C#N)C1 (stereo not shown) [Example 9, 3-(3-amino-4-(7H-pyrrolo[2,3-d]pyrimidin-4-yl)-1H-pyrazol-1-yl)-3-(cyanomethyl)cyclobutane-1-carbonitrile]	
48	< 1	< 2	N#CC[C@]1(n2cc(-c3ncnc4[nH]ccc34)c(N)n2)C[C@H](C#N)C1 [Example 10, (1r,3r)-3-(3-amino-4-(7H-pyrrolo[2,3-d]pyrimidin-4-yl)-1H-pyrazol-1-yl)-3-(cyanomethyl)cyclobutane-1-carbonitrile]	
85	< 2	< 5	N#CCC(C1CC1)n1cc(-c2ncnc3[nH]ccc23)c(N)n1 (stereo not shown) [Example 12, 3-(3-amino-4-(7H-pyrrolo[2,3-d]pyrimidin-4-yl)-1H-pyrazol-1-yl)-3-cyclopropylpropanitrile]	
122	< 5	< 5	N#CCC(C1CCC1)n1cc(-c2ncnc3[nH]ccc23)c(N)n1 (stereo not shown) [Example 13, 3-(3-amino-4-(7H-pyrrolo[2,3-d]pyrimidin-4-yl)-1H-pyrazol-1-yl)-3-cyclobutylpropionitrile]	
175	< 5	< 5	N#CCC(C1CCCCC1)n1cc(-c2ncnc3[nH]ccc23)c(N)n1 (stereo not shown) [Example 14, 3-(3-amino-4-(7H-pyrrolo[2,3-d]pyrimidin-4-yl)-1H-pyrazol-1-yl)-3-cyclohexylpropionitrile]	
215	< 5	< 5	CC1(C)CC(C(CC#N)n2cc(-c3ncnc4[nH]ccc34)c(N)n2)C1 (stereo not shown) [Example 15, 3-(3-amino-4-(7H-pyrrolo[2,3-d]pyrimidin-4-yl)-1H-pyrazol-1-yl)-3-(3,3-dimethylcyclobutyl)propionitrile]	
284	< 5	< 5	CC1CC(C(CC#N)n2cc(-c3ncnc4[nH]ccc34)c(N)n2)C1 (stereo not shown) [Example 16, 3-(3-amino-4-(7H-pyrrolo[2,3-d]pyrimidin-4-yl)-1H-pyrazol-1-yl)-3-(3-methylcyclobutyl)propanitrile]	
225	< 5	< 5	CC1CC([C@H](CC#N)n2cc(-c3ncnc4[nH]ccc34)c(N)n2)C1 (stereo partly drawn) [Example 17, (3S)-3-(3-amino-4-(7H-pyrrolo[2,3-d]pyrimidin-4-yl)-1H-pyrazol-1-yl)-3-(-3-methylcyclobutyl)propanitrile]	
296	< 5	< 5	CC1CC([C@@H](CC#N)n2cc(-c3ncnc4[nH]ccc34)c(N)n2)C1 (stereo partly drawn) [Example 18, (3R)-3-(3-amino-4-(7H-pyrrolo[2,3-d]pyrimidin-4-yl)-1H-pyrazol-1-yl)-3-(-3-methylcyclobutyl)propanitrile]	
167	< 5	< 5	N#CCC1(n2cc(-c3ncnc4[nH]ccc34)c(N)n2)CC2(CCC2)C1 [Example 19, 2-(2-(3-amino-4-(7H-pyrrolo[2,3-d]pyrimidin-4-yl)-1H-pyrazol-1-yl)spiro[3.3]heptan-2-yl)acetonitrile]	
218	< 5	< 5	N#CCC(C1CC2(CCC2)C1)n1cc(-c2ncnc3[nH]ccc23)c(N)n1 (stereo not shown) [Example 20, 3-(3-amino-4-(7H-pyrrolo[2,3-d]pyrimidin-4-yl)-1H-pyrazol-1-yl)-3-(spiro[3.3]heptan-2-yl)propionitrile]	
185	< 5	< 5	N#CCC(C1CC2(CC2)C1)n1cc(-c2ncnc3[nH]ccc23)c(N)n1 (stereo not shown) [Example 21, 3-(3-amino-4-(7H-pyrrolo[2,3-d]pyrimidin-4-yl)-1H-pyrazol-1-yl)-3-(spiro[2.3]hexan-5-yl)propionitrile]	
			Cc1ccc(C(=O)OCc2ccc([C@@H](CN)C(=O)Nc3ccc4cnccc4c3)cc2)c(C)c1 [Netarsudil, reference compound]	288
1680	29.6		C[C@H]1CNCCCN1S(=O)(=O)c1cccc2cncc(F)c12 [Ripasudil, reference compound]	

Structure (SMILES)	IC50 ([1]; Rattus norvegicus, A7R5, 1 h) [nM]	IC50 (ROCK2) [nM]	IC50 (ROCK1) [nM]	IC50 ([1]; rat smooth muscle cell line A7r5, 1 hour compound incubation in serum-free medium, absolute IC50) [nM]
N#CC[C@]1(n2cc(-c3ncnc4[nH]ccc34)c(N)n2)C[C@@H](C#N)C1 [Example 11, (1s,3s)-3-(3-amino-4-(7H-pyrrolo[2,3-d]pyrimidin-4-yl)-1H-pyrazol-1-yl)-3-(cyanomethyl)cyclobutane-1-carbonitrile]	466	< 10	< 10	
